Data published in patent US20030207924A1, “Compounds that modulate PPAR activity and methods of preparation” (priority 2002, published 2003).
Like-named read-outs stand apart in the source and are kept apart here.

How the values were obtained:
hPPARβ chimeric receptor = molecular target: T1, hPPARβ chimeric receptor (Homo sapiens, UniProt Q03181); assay: Transient transfection assay in HepG2 cells, Gal4-hPPARβ chimeric receptor, luciferase reporter (Test A); type: cell-based; conditions: for EC50-β (Hep G2-hBeta EC50): HepG2 cells, hPPARβ chimeric receptor, luciferase reporter, 24 hours
T1 construct: "expression plasmids encoding hPPARα, hPPARβ or mPPARγ chimeric receptors"
T1 sequence (Q03181 171-441 limits assumed): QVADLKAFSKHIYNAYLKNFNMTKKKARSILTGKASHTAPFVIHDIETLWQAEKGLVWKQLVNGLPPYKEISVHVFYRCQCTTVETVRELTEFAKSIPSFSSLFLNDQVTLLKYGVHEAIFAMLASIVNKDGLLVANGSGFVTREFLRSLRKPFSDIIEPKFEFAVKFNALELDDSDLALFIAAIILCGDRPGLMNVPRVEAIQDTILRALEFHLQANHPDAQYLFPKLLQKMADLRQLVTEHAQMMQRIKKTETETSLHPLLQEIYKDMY
Protocol: (§1) 1. Test A. Transient Transfections Assay Using the HepG2 Hepatoma Cell Line.
(§2) HepG2 cells were transiently transfected with an expression plasmids encoding hPPARα, hPPARβ or mPPARγ chimeric receptors and a reporter containing the yeast upstream activating sequence (UAS) upstream of the viral E1B promoter controlling a luciferase reporter gene. In addition, the plasmid pRSVβ-gal was used to control for transfection efficiency. HepG2 cells were grown in DMEM supplemented with 10% FBS and […] non-essential amino acid. On the first day, cells were split into 100 mm dishes at 2.5×10^6/dish and incubated overnight at 37° C./5% CO2. On the second day the cells were transiently transfected with plasmid DNA encoding a chimeric receptor, the luciferase reporter gene; and β-gal. For each 100 mm dish, 15 μg of lucifease reporter (PG5E1b) DNA, 15 μg of Gal4-PPAR chimeric receptor DNA, and 1.5 μg of β-gal plasmid DNA were mixed with 1.4 ml of opti-MEM in the tube. 28 μl of LipoFectamine-2000 reagent was added to 1.4 ml of opti-MEM in the tube, and incubate for 5 min at RT. The diluted Lipofectamine-2000 reagent was combined with the DNA mixture, and incubate for 20 min at RT. After fresh medium was added to each 100 mm dish of cells, 2.8 ml of Lipofectamine2000-DNA mixture was added dropwise to the 100 mm dish containing 14 ml of medium, and incubate 37° C. overnight. On day three cells were trypsinized off the 100 mm dishes and re-plated on 96 well plates. Cells were plated at 2.5×10^4 cells per well in 150 μl of media and 50 μl of compound diluted by media was added. The test compounds added were in the range from 50 μM to 50 pM. After addition of compounds, the plates were incubated at 37° C. for 24 hours. Subsequently cells were washed with once with 100 μl of PBS, lysed, and processed for measuring luciferase and β-gal activity using Dual-Light luciferase kit from Tropix®, according to the manufacturer's recommendations, on an EG&G Bethold MicroLumat LB96P luminometer. EC50 values were obtained using the GraphPad Prism™ program.

hPPARα chimeric receptor = molecular target: T2, hPPARα chimeric receptor (Homo sapiens, UniProt Q07869); assay: Transient transfection assay in HepG2 cells, Gal4-hPPARα chimeric receptor, luciferase reporter (Test A); type: cell-based
T2 construct: "expression plasmids encoding hPPARα, hPPARβ or mPPARγ chimeric receptors"
T2 sequence (Q07869 200-468 limits assumed): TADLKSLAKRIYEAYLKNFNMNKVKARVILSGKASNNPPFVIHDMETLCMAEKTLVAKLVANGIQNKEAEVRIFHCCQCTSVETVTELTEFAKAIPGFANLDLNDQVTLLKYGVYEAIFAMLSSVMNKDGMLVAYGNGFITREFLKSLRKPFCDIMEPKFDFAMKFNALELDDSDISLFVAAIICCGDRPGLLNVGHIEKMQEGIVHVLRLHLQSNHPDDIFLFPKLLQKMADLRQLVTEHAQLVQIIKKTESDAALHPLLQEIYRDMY
Protocol: as §1
as §2, with “program. […] Accordingly, the compounds of the present invention should find considerable therapeutic applications for hypercholesterolemia and hyperlipidemia.” for “program.”

[1] = HepG2 cells, hPPARα chimeric receptor, luciferase reporter, 24 hours, read-out: EC50-α (Hep G2-hAlpha EC50)

Cc1nc(-c2ccc(C(F)(F)F)cc2)sc1CSc1ccc([C@@H]2CC2C(=O)O)cc1 (stereo in doubt) [Example 12, 2-{4-[4-Methyl-2-(4-trifluoromethyl-phenyl)-thiazol-5-ylmethylsulfanyl]-phenyl}-cyclopropanecarboxylic acid]
EC50 (hPPARβ chimeric receptor): 0.303 µM | EC50 (hPPARα chimeric receptor; [1]): 0.135 µM

Cc1nc(-c2ccc(C(F)(F)F)cc2)sc1CSc1ccc(C2CCC(CC(=O)O)CC2)cc1 (stereo not drawn) [Example 33, (4-{4-[4-Methyl-2-(4-trifluoromethyl-phenyl)-thiazol-5-ylmethylsulfanyl]-phenyl}-cyclohexyl)-acetic acid]
EC50-β (Hep G2-hBeta EC50) (hPPARβ chimeric receptor): 2000 µM

Cc1nc(-c2ccc(C(F)(F)F)cc2)sc1CSc1ccc(CC(C(=O)O)n2cccc2)cc1 (stereo not drawn) [Example 24, 3-{4-[4-Methtyl-2-(4-trifluoromethyl-phenyl)-thiazol-5-ylmethylsulfanyl]-phenyl}-2-pyrrol-1-yl-propionic acid]
EC50-β (Hep G2-hBeta EC50) (hPPARβ chimeric receptor): 2000 µM | EC50 (hPPARα chimeric receptor; [1]): 2000 µM

COc1cc(OC)c(SCc2sc(-c3ccc(C(F)(F)F)cc3)nc2C)cc1CCC(=O)O [Example 19, 3-{2,4-Dimethoxy-5-[4-methyl-2-(4-trifluoromethyl-phenyl)-thiazol-5-ylmethylsulfanyl]-phenyl}-propionic acid]
EC50 (hPPARβ chimeric receptor): 1.12 µM | EC50 (hPPARα chimeric receptor; [1]): 1.54 µM

COc1cc(SCc2sc(-c3ccc(C(F)(F)F)cc3)nc2C)c(C)cc1OCC(=O)O [Example 6, {2-Methoxy-5-methyl-4-[4-methyl-2-(4-trifluoromethyl-phenyl)-thiazol-5-ylmethylsulfanyl]-phenoxy}-acetic acid]
EC50 (hPPARβ chimeric receptor): 1.24 µM | EC50 (hPPARα chimeric receptor; [1]): 1.39 µM

Cc1nc(-c2ccc(C(F)(F)F)cc2)sc1CSc1ccc(C(C)(C)CC(=O)O)cc1 [Example 18, 3-Methyl-3-{4-[4-methyl-2-(4-trifluoromethyl-phenyl)-thiazol-5-ylmethylsulfanyl]-phenyl}-butyric acid]
EC50 (hPPARβ chimeric receptor): 0.803 µM

Cc1nc(-c2ccc(C(F)(F)F)cc2)sc1CSc1ccc(C2(C(=O)O)CCCC2)cc1 [Example 14, 1-{4-[4-Methyl-2-(4-trifluoromethyl-phenyl)-thiazol-5-ylmethylsulfanyl]-phenyl}-cyclopentanecarboxylic acid]
EC50 (hPPARβ chimeric receptor): 6.74 µM | EC50 (hPPARα chimeric receptor; [1]): 0.992 µM

COc1cc(SCc2sc(-c3ccc(C(F)(F)F)cc3)nc2C)c(OC)cc1CCC(=O)O [Example 20, 3-{2,5-Dimethoxy-4-[4-methyl-2-(4-trifluoromethyl-phenyl)-thiazol-5-ylmethylsulfanyl]-phenyl}-propionic acid]
EC50 (hPPARβ chimeric receptor): 0.0349 µM | EC50 (hPPARα chimeric receptor; [1]): 0.146 µM

Cc1cc(SCc2sc(-c3ccc(C(F)(F)F)cc3)nc2C)c(C)cc1OCC(=O)O [Example 1, {2,5-Dimethyl-4-[4-methyl-2-(4-trifluoromethyl-phenyl)-thiazol-5-ylmethylsulfanyl]-phenoxy}-acetic acid]
EC50 (hPPARβ chimeric receptor): 0.0144 µM | EC50 (hPPARα chimeric receptor; [1]): 0.042 µM

CC(=O)Nc1cc(OCC(=O)O)c(C)cc1SCc1sc(-c2ccc(C(F)(F)F)cc2)nc1C [Example 25, 2-[5-(acetylamino)-2-methyl-4-({4-methyl-2-[4-(trifluoromethyl)phenyl](1,3-thiazol-5-yl)}methylthio)phenoxy]acetic acid]
EC50-β (Hep G2-hBeta EC50) (hPPARβ chimeric receptor): 2000 µM

COc1cc(OCC(=O)O)cc(C)c1SCc1sc(-c2ccc(C(F)(F)F)cc2)nc1C [Example 8, {3-Methoxy-5-methyl-4-[4-methyl-2-(4-trifluoromethyl-phenyl)-thiazol-5-ylmethylsulfanyl]-phenoxy}-acetic acid]
EC50 (hPPARβ chimeric receptor): 0.0453 µM | EC50 (hPPARα chimeric receptor; [1]): 0.84 µM

Cc1cc(OCC(=O)O)cc(C)c1SCc1sc(-c2ccc(C(F)(F)F)cc2)nc1C [Example 7, {3,5-Dimethyl-4-[4-methyl-2-(4-trifluoromethyl-phenyl)-thiazol-5-ylmethylsulfanyl]-phenoxy}-acetic acid]
EC50 (hPPARβ chimeric receptor): 0.473 µM | EC50 (hPPARα chimeric receptor; [1]): 1.34 µM

COc1cc(OC)c(SCc2sc(-c3ccc(C(F)(F)F)cc3)nc2C)cc1CC(=O)O [Example 21, {2,4-Dimethoxy-5-[4-methyl-2-(4-trifluoromethyl-phenyl)-thiazol-5-ylmethylsulfanyl]}-acetic acid]
EC50 (hPPARβ chimeric receptor): 1.25 µM | EC50 (hPPARα chimeric receptor; [1]): 0.442 µM

COCc1cc(OCC(=O)O)c(C)cc1SCc1sc(-c2ccc(C(F)(F)F)cc2)nc1C [Example 32, 2-[5-(methoxymethyl)-2-methyl-4-({4-methyl-2-[4-(trifluoromethyl)phenyl](1,3-thiazol-5-yl)}methylthio)phenoxy]acetic acid]
EC50 (hPPARβ chimeric receptor): 0.649 µM | EC50 (hPPARα chimeric receptor): 0.625 µM

COc1cc(C(C)(C)C(=O)O)ccc1SCc1sc(-c2ccc(C(F)(F)F)cc2)nc1C [Example 17, 2-{3-Methoxy-4-[4-methyl-2-(4-trifluoromethyl-phenyl)-thiazol-5-ylmethylsulfanyl]-phenyl}-2-methyl-propionic acid]
EC50 (hPPARβ chimeric receptor): 0.0199 µM | EC50 (hPPARα chimeric receptor; [1]): 0.0055 µM

Cc1cc(SCc2sc(-c3ccc(C(F)(F)F)cc3)nc2C)c(Cl)cc1OCC(=O)O [Example 31, {5-Chloro-2-methyl-4-[4-methyl-2-(4-trifluoromethyl-phenyl)-thiazol-5-ylmethylsulfanyl]-phenoxy}-acetic acid]
EC50 (hPPARβ chimeric receptor): 0.105 µM | EC50 (hPPARα chimeric receptor; [1]): 2.05 µM

Cc1cc(SCc2sc(-c3ccc(C(F)(F)F)cc3)nc2C)c(C(C)C)cc1OCC(=O)O [Example 3, {5-Isopropyl-2-methyl-4-[4-methyl-2-(4-trifluoromethyl-phenyl)-thiazol-5-ylmethylsulfanyl]-phenoxy}-acetic acid]
EC50 (hPPARβ chimeric receptor): 1.28 µM | EC50 (hPPARα chimeric receptor; [1]): 0.538 µM

Cc1cc(OCC(=O)O)c(C(C)C)cc1SCc1sc(-c2ccc(C(F)(F)F)cc2)nc1C [Example 9, {2-Isopropyl-5-methyl-4-[4-methyl-2-(4-trifluoromethyl-phenyl)-thiazol-5-ylmethylsulfanyl]-phenoxy}-acetic acid]
EC50 (hPPARβ chimeric receptor): 0.891 µM | EC50 (hPPARα chimeric receptor; [1]): 5.75 µM

Cc1nc(-c2ccc(C(F)(F)F)cc2)sc1CSc1ccc(C(C)(C)C(=O)O)cc1 [Example 11, 2-Methyl-2-{4-[4-methyl-2-(4-trifluoromethyl-phenyl)-thiazol-5-ylmethylsulfanyl]-phenyl}-propionic acid]
EC50 (hPPARβ chimeric receptor): 0.0488 µM | EC50 (hPPARα chimeric receptor; [1]): 0.507 µM

COc1cc(CN2CCCC2C(=O)O)ccc1SCc1sc(-c2ccc(C(F)(F)F)cc2)nc1C (stereo not drawn) [Example 29]
EC50-β (Hep G2-hBeta EC50) (hPPARβ chimeric receptor): 2000 µM
